# Source: patent publication US8426447B2, “Spiro-tricyclic ring compounds as beta-secretase modulators and methods of use” (Amgen Inc., priority 2008, dated 2013)
# pIC50: −log10 of the molar value.
# Experiments:
# BACE1 [1] = molecular target: T1, BACE1 (Homo sapiens, UniProt P56817); assay: In Vitro Enzymatic BACE FRET (Fluorescence Resonance Energy Transfer) Assay; type: biochemical; details: read-out: BACE1 FRET assay; for IC50: Table III, IC50's in uM ranges
# Procedure, shortened: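 One-hour incubation initiated by 50 nM quenched FRET peptide spanning the BACE cleavage site, in 0.05 M acetate (pH 4.2), 100 uM genapol, 10% DMSO final. Tris addition neutralizes pH to end the reaction before fluorescence measurement.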
# BACE1 [2] = molecular target: T1, BACE1; assay: In Vitro BACE Cell-based Assay (HEK cell assay): Aβ40 in conditioned medium of cells stably expressing Amyloid Precursor Protein, sandwich ELISA; details: read-out: HEK cell assay; for IC50: Table III, IC50's in uM ranges
# Procedure, shortened: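 First, APP-stable cells grow 24 h at 37° C., 5% CO2. Next, test compounds are added for 24 h (10 doses, 0.1% DMSO). Finally, medium Aβ40 is determined by pAb40/6E10 sandwich ELISA with Europium TRF, and IC50 is calculated.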
# [3] = in vitro BACE FRET enzyme assay, IC50 class symbols
# [4] = HEK cell-based assay, Aβ40 in conditioned medium, IC50 class symbols
# [5] = Table II, Aβ40, 24 h incubation
# T1 sequence (P56817 46-501, species assumed): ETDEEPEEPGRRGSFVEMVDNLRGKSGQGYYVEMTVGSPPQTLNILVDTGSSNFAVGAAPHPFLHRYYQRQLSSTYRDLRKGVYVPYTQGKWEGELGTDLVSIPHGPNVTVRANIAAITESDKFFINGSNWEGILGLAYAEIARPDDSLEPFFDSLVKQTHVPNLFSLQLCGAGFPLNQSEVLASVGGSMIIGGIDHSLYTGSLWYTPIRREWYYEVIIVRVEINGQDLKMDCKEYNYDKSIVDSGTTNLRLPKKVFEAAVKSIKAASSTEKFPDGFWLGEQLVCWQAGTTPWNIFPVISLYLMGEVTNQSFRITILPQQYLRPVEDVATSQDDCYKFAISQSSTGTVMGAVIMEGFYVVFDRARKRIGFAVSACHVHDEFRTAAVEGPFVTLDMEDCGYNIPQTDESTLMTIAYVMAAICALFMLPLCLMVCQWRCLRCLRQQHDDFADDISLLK
smiles,measurement,setting,value
CC(C)(C)C#Cc1ccc2c(n1)[C@]1(COC(N)=N1)c1cc(-c3cccnc3)ccc1O2 [compound 854],pIC50,"BACE1 [1]; Table IV, class symbols",> 7.00
same,pIC50,"BACE1 [2]; Table IV, class symbols",> 7.00
CC(C)(C)COc1ccc2c(c1)[C@]1(COC(N)=N1)c1cc(C(=O)NC3CC3)ccc1O2 [compound 798],pIC50,"BACE1 [1]; Table IV, class symbols",> 7.00
same,pIC50,"BACE1 [2]; Table IV, class symbols",> 7.00
NC1=N[C@@]2(CO1)c1cc(-c3cncnc3)ccc1Oc1cc(OCC(F)(F)F)c(F)cc12 [compound 987],pIC50,BACE1 [1],< 5.30
same,pIC50,BACE1 [2],< 5.30
CC(C)(C)C#Cc1cnc2c(c1)[C@@]1(COC(N)=N1)c1cc(Oc3ccccn3)ccc1O2 [compound 927],pIC50,BACE1 [1],6.00 to 7.00
same,pIC50,BACE1 [2],5.30 to 6.00
CC1(C#Cc2cc(F)c3c(c2)[C@]2(COC(N)=N2)c2cc(-c4cncnc4)ccc2O3)COC1 [compound 475],pIC50,BACE1 [1],> 7.00
same,pIC50,BACE1 [2]; HEK cells,> 7.00
COCC[C@@H]1CN(c2ccc3c(c2)[C@]2(COC(N)=N2)c2cc(-c4cccnc4)ccc2O3)CCO1 [compound 362],pIC50,BACE1 [1]; [3],6.00 to 7.00
same,pIC50,BACE1 [2]; [4],6.00 to 7.00
COC1CN(c2cc(F)c3c(c2)[C@]2(COC(N)=N2)c2cc(-c4cccnc4)ccc2O3)C1 [compound 474],pIC50,BACE1 [1],> 7.00
same,pIC50,BACE1 [2]; HEK cells,> 7.00
CCCOc1cc2c(cc1F)Oc1ccc(-c3cncnc3)cc1[C@@]21COC(N)=N1 [compound 940],pIC50,BACE1 [1],> 7.00
same,pIC50,BACE1 [2],> 7.00
"CC(C)(C#N)COc1ccc2c(c1)[C@]1(COC(N)=N1)c1cc(-c3cccnc3)ccc1O2 [Example 134, (S)-3-(2-amino-2′-(pyridin-3-yl)-5H-spiro[oxazole-4,9′-xanthene]-7′-yloxy)-2,2-dimethylpropanenitrile]",IC50,BACE1 [1],< 0.1 µM
same,IC50,BACE1 [2],< 0.1 µM
NC1=N[C@@]2(CO1)c1ccccc1Oc1ccc(-c3cccnc3)cc12 [compound 640],pIC50,"BACE1 [1]; Table IV, class symbols",5.30 to 6.00
same,pIC50,"BACE1 [2]; Table IV, class symbols",5.30 to 6.00
Cc1ccccc1-c1ccc2c(c1)[C@]1(COC(N)=N1)c1cc(-c3cncnc3)ccc1O2 [compound 220],IC50,BACE1 [1],< 0.1 µM
same,IC50,BACE1 [2],0.1 to 1 µM
CC(C)(O)COc1ccc2c(c1)[C@]1(COC(N)=N1)c1cc(-c3ccccc3)ccc1O2 [compound 221],IC50,BACE1 [1],< 0.1 µM
same,IC50,BACE1 [2],0.1 to 1 µM
CC(C)(F)COc1ccc2c(c1)[C@]1(COC(N)=N1)c1cc(-c3cccnc3)ccc1O2 [compound 148],IC50,BACE1 [1],< 0.1 µM
same,IC50,BACE1 [2],< 0.1 µM
NC1=N[C@@]2(CO1)c1cc(-c3cccnc3)ccc1Oc1ccc(-c3ccc(F)nc3)cc12 [compound 969],pIC50,BACE1 [1],> 7.00
same,pIC50,BACE1 [2],> 7.00
CC(=O)c1cccc(-c2ccc3c(c2)[C@]2(COC(N)=N2)c2cc(OCC(C)(C)C)ccc2O3)c1 [compound 191],IC50,BACE1 [1],< 0.1 µM
same,IC50,BACE1 [2],1 to 5 µM
CC(C)(C)C#Cc1ccc2c(c1)[C@]1(COC(N)=N1)c1cc(C3=CCOCC3)ncc1O2 [compound 800],pIC50,"BACE1 [1]; Table IV, class symbols",6.00 to 7.00
same,pIC50,"BACE1 [2]; Table IV, class symbols",5.30 to 6.00
NC1=N[C@]2(CO1)c1cc(OC[C@H](O)C(F)(F)F)ccc1Oc1ccc(-c3cccnc3)cc12 [compound 924],pIC50,"BACE1 [1]; Table IV, class symbols",> 7.00
same,pIC50,"BACE1 [2]; Table IV, class symbols",6.00 to 7.00
CC(C)Oc1ccc(-c2cc3c(cn2)Oc2ccc(-c4cccnc4)cc2[C@@]32COC(N)=N2)cc1 [compound 851],pIC50,"BACE1 [1]; Table IV, class symbols",> 7.00
same,pIC50,"BACE1 [2]; Table IV, class symbols",6.00 to 7.00
CSc1ccc(-c2ccc3c(c2)[C@]2(COC(N)=N2)c2cc(OCC(C)(C)C)ccc2O3)cc1 [compound 787],pIC50,BACE1 [1],> 7.00
same,pIC50,BACE1 [2],5.30 to 6.00
CC1(COc2cnc3c(c2)[C@]2(COC(N)=N2)c2cc(-c4cc(F)ccc4F)ccc2O3)COC1 [compound 412],pIC50,BACE1 [1]; [3],> 7.00
same,pIC50,BACE1 [2]; [4],> 7.00
COC(=O)c1ccc2c(c1)[C@@]1(COC(N)=N1)c1cc(OCC(C)(C)C)ccc1O2 [compound 875],pIC50,"BACE1 [1]; Table IV, class symbols",> 7.00
same,pIC50,"BACE1 [2]; Table IV, class symbols",6.00 to 7.00
Cc1ccc(-n2ccc3c(c2=O)[C@]2(COC(N)=N2)c2cc(-c4cccnc4)ccc2O3)cc1 [compound 504],pIC50,BACE1 [1],6.00 to 7.00
same,pIC50,BACE1 [2]; HEK cells,6.00 to 7.00
CC(C)(C)COc1ccc2c(c1)[C@@]1(COC(N)=N1)c1cc(C(=O)N3CCCC3)ccc1O2 [compound 992],pIC50,BACE1 [1],6.00 to 7.00
same,pIC50,BACE1 [2],5.30 to 6.00
"CC(C)(C)COc1ccc2c(c1)[C@]1(COC(N)=N1)c1cc(C#CC3CC3)ccc1O2 [Example 40, (4S)-2′-(cyclopropylethynyl)-7′-(2,2-dimethylpropoxy)spiro[1,3-oxazole-4,9′-xanthen]-2-amine]",pIC50,BACE1 [1]; Table II,> 7.00
same,pIC50,BACE1 [2]; [5],6.00 to 7.00
"Cc1ncccc1-c1ccc2c(c1)[C@@]1(COC(N)=N1)c1cc(OCC(C)(C)C)ccc1O2 [Example 79, (4S)-2′-(2,2-dimethylpropoxy)-7′-(2-methyl-3-pyridinyl)spiro[1,3-oxazole-4,9′-xanthen]-2-amine]",pIC50,BACE1 [1]; Table II,6.00 to 7.00
same,pIC50,BACE1 [2]; [5],6.00 to 7.00
CC(C)(O)C#Cc1ccc2c(c1)C1(COC(N)=N1)c1cc(C#CC(C)(C)O)ccc1O2 [compound 118],IC50,BACE1 [1],1 to 5 µM
same,IC50,BACE1 [2],1 to 5 µM
C[Si](C)(C)C#Cc1cnc2c(c1)[C@]1(COC(N)=N1)c1cc(-c3cccnc3)ccc1O2 [compound 348],pIC50,BACE1 [1]; [3],> 7.00
same,pIC50,BACE1 [2]; [4],> 7.00
COc1cncc(-c2ccc3c(c2)[C@@]2(COC(N)=N2)c2cc(C#CC(C)(C)C)cnc2O3)c1 [compound 643],pIC50,"BACE1 [1]; Table IV, class symbols",> 7.00
same,pIC50,"BACE1 [2]; Table IV, class symbols",> 7.00
"COc1ccc2c(c1)[C@@]1(COC(N)=N1)c1cc(NC(=O)c3ccc(Cl)cn3)ccc1O2 [Example 55, N-((4R)-2-amino-7′-methoxyspiro[1,3-oxazole-4,9′-xanthen]-2′-yl)-5-chloro-2-pyridinecarboxamide]",pIC50,BACE1 [1]; Table II,> 7.00
same,pIC50,BACE1 [2]; [5],6.00 to 7.00
NC1=N[C@]2(CO1)c1cc(-c3ccc(F)nc3)ccc1Oc1ncc(C3=CCOCC3)cc12 [compound 716],pIC50,BACE1 [1],5.30 to 6.00
same,pIC50,BACE1 [2],5.30 to 6.00
NC1=N[C@@]2(CO1)c1cc(-c3cccnc3F)ccc1Oc1ncc(-c3ccncc3)cc12 [compound 403],pIC50,BACE1 [1]; [3],> 7.00
same,pIC50,BACE1 [2]; [4],> 7.00
CC(C)(F)COc1cnc2c(c1)[C@]1(COC(N)=N1)c1cc(-c3ccccc3)ccc1O2 [compound 452],pIC50,BACE1 [1],> 7.00
same,pIC50,BACE1 [2]; HEK cells,6.00 to 7.00
NC1=N[C@@]2(CO1)c1ccccc1Oc1ccc(-c3cccnc3F)cc12 [compound 641],pIC50,"BACE1 [1]; Table IV, class symbols",6.00 to 7.00
same,pIC50,"BACE1 [2]; Table IV, class symbols",5.30 to 6.00
CC(C)(O)C#Cc1ccc2c(c1)[C@]1(COC(N)=N1)c1cc(-c3cccnc3)ccc1O2 [151a],IC50,BACE1 [1],< 0.1 µM
same,IC50,BACE1 [2],< 0.1 µM
CC(C)(C)C#Cc1ccc2c(c1)[C@]1(COC(N)=N1)c1cc(C#CC(C)(C)C)ncc1O2 [compound 847],pIC50,"BACE1 [1]; Table IV, class symbols",6.00 to 7.00
same,pIC50,"BACE1 [2]; Table IV, class symbols",5.30 to 6.00
"COC(C)(C)CCc1ccc2c(c1)[C@]1(COC(N)=N1)c1cc(-c3cncnc3)ccc1O2 [Example 122, (R)-2′-(3-methoxy-3-methylbutyl)-7′-(pyrimidin-5-yl)-5H-spiro[oxazole-4,9′-xanthen]-2-amine]",IC50,BACE1 [1],< 0.1 µM
same,IC50,BACE1 [2],< 0.1 µM
NC1=N[C@@]2(CO1)c1cc(-c3cncnc3)ccc1Oc1ccc(-c3cccc(OC(F)(F)F)c3)cc12 [compound 839],pIC50,"BACE1 [1]; Table IV, class symbols",> 7.00
same,pIC50,"BACE1 [2]; Table IV, class symbols",5.30 to 6.00
Cc1ccc(-n2ccc3c(c2=O)[C@@]2(COC(N)=N2)c2cc(-c4cccnc4)ccc2O3)cc1 [compound 503],pIC50,BACE1 [1],< 5.30
same,pIC50,BACE1 [2]; HEK cells,5.30 to 6.00
N#Cc1ccccc1Oc1ccc2c(c1)[C@]1(COC(N)=N1)c1cc(-c3cncnc3)ccc1O2 [compound 965],pIC50,BACE1 [1],6.00 to 7.00
same,pIC50,BACE1 [2],< 5.30
CC(C)(C)COc1ccc2c(c1)[C@]1(COC(N)=N1)c1cc(C3CCCC3)ccc1O2 [compound 701],pIC50,BACE1 [1],> 7.00
same,pIC50,BACE1 [2],5.30 to 6.00
COc1ccc2c(c1)[C@@]1(COC(N)=N1)c1cc(-c3cncnc3)cnc1O2 [compound 669],pIC50,BACE1 [1],5.30 to 6.00
same,pIC50,BACE1 [2],5.30 to 6.00
CC(C)C#Cc1cnc2c(c1)[C@]1(COC(N)=N1)c1cc(-c3cncnc3)ccc1O2 [compound 743],pIC50,BACE1 [1],> 7.00
same,pIC50,BACE1 [2],> 7.00
COc1cc(F)c2c(c1)[C@]1(COC(N)=N1)c1cc(-c3cncnc3)cnc1O2 [compound 584],pIC50,"BACE1 [1]; Table IV, class symbols",5.30 to 6.00
same,pIC50,"BACE1 [2]; Table IV, class symbols",< 5.30
Cc1nn(C)c(C)c1-c1ccc2c(c1)[C@@]1(COC(N)=N1)c1cc(OCC(C)(C)C)ccc1O2 [compound 213],IC50,BACE1 [1],0.1 to 1 µM
same,IC50,BACE1 [2],1 to 5 µM
CC(C)C[C@@H]1CN(c2ccc3c(c2)[C@]2(COC(N)=N2)c2cc(-c4cccnc4)ccc2O3)CCO1 [compound 360],pIC50,BACE1 [1]; [3],6.00 to 7.00
same,pIC50,BACE1 [2]; [4],6.00 to 7.00
NC1=N[C@@]2(CO1)c1cc(-c3cccnc3)ccc1Oc1cnc(N3CCN(CC(=O)O)CC3)cc12 [compound 396],pIC50,BACE1 [1]; [3],> 7.00
same,pIC50,BACE1 [2]; [4],6.00 to 7.00
